Source: patent US7985771B2, “Furanone derivatives” (Monsanto Technology LLC, priority 2002, dated 2011)

Assays:
[1] = tested on: IL-1beta release from a mouse microglial cell line; assay: Interleukin-1 beta microglial cell assay; format: cell-based; details: LPS and IFN gamma stimulation, 24 hours, read-out: inhibition of IL-1beta induction, EC50
Description: This assay measures the release of IL-1β from a mouse microglial cell line following an inflammatory challenge with LPS and interferon-gamma. The ability of test articles to inhibit microglial cell activation and IL-1beta release is determined by co-incubation of the test article with the inflammatory challenge. Cytokine release is measured using a mouse IL-1β ELISA and cell toxicity is determined using Cell Tracker Green (a fluorescent dye that measures cell viability).
Mouse microglial cells were seeded in poly-D-lysine coated 96-well plates at a density of 10,000 cells/well and allowed to attach for 24 hours. Cells were stimulated by addition of LPS (10 μg/ml) and IFN gamma (10 ng/ml) in the presence or absence of test article. The cells were then incubated for 24 hours at 37° C., after which time the media was removed and used for cytokine determination as described below.
Viability of mouse microglial cells after exposure to the test article was determined using a fluorescent viability dye, Cell Tracker Green. Cell Tracker Green was used at a working concentration of 5 μM in 1× HBSS. Cells were washed once with HBSS (200 μl/well) and 100 μl Cell Tracker Green was added to each well. Cells were then incubated at 37° C. for 30 minutes, after which time the Cell Tracker was removed and the cells were washed once with HBSS (200 μl/well). 100 μl fresh HBSS was added to each well and the plate was read on a Fluoroskan plate reader using an excitation wavelength of 485 nm and an emission wavelength of 538 nm.
1. The IL-1β capture antibody was reconstituted in 1 ml of PBS to give a final concentration of 720 μg/ml, and the working concentration was 4 μg/ml. For coating one 96-well plate (at 100 μl/well) 56 μl of the 720 μg/ml stock was diluted into 10 ml of PBS. 2. The IL-1β standards were reconstituted in 0.5 ml of Reagent Diluent (70 ng/ml). For a high standard of 1 ng/ml (2 wells at 100 μl each+enough for series dilution) 7.1 μl of the 70 ng/ml standard were diluted into 0.5 ml of Reagent Diluent 3. The IL-1β detection antibody was reconstituted in 1 ml of Reagent Diluent to give a final concentration of 18 μg/ml and the working concentration is 100 ng/ml. For one 96-well plate (at 100 μl/well) 56 μl of the 18 μg/ml stock was diluted into 10 ml of Reagent Diluent.
1. The Costar EIA Hi-binding plate was coated with capture antibody at 4 μg/ml. Each well was coated with 100 μl, and the plate was sealed and incubated overnight at room temperature.
2. Each well was aspirated and washed 3× with Wash Buffer. Each well was filled to the top, dispensed, and any remaining buffer was removed by inverting the plate and gently blotting against clean paper towels.
3. Non-specific binding sites were blocked by adding 300 μl of Blocking Buffer to each well, and after sealing incubating for at least 1 hour at room temperature.
5. 100 μl of either standard or sample were added in each well of the capture-coated and pre-blocked plate. The plate was sealed and incubated for 2 hours at room temperature, followed with washing as in step 2.
6. 100 μl of the detection antibody ([…]) were added to each well.
7. The plate was sealed and incubated at room temperature for 2 hours, followed with washing as in step 2.
8. 100 μl of the working dilution of Streptavidin-HRP was added, and the plate was sealed and incubated in the dark for 20 minutes at room temperature, followed with washing as in Step 2.
9. The fresh Substrate Solution was prepared by mixing Color Reagent A (H2O2) and Color Reagent B (Tetramethylbenzidine) in a 1:1 ratio. 100 μl of this Substrate Solution mixture was added to each well and the plate was incubated in the dark for 20 minutes at room temperature. 10. 50 μl of Stop Solution was added to each well, mixing was ensured by gently tapping. 11. Each plate was read with the Spectramax once at 450 nm. Results

[2] = tested on: ELAM (E-selectin) expression in endothelial cells; assay: E-selectin (ELAM) cell inflammation assay; format: cell-based; details: LPS and IL-1β stimulation, read-out: reduction of expression of ELAM, EC50
Description: Endothelial-Leukocyte Adhesion Molecule (ELAM), also known as E-selectin, is expressed on the surface of endothelial cells. In this assay, lipopolysaccharide (LPS) and IL-1β are used to stimulate the expression of ELAM; test agents are tested for their abilities to reduce this expression, in accordance with studies showing that reduction of leukocyte adhesion to endothelial cell surface is associated with decreased cellular damage (e.g., Takada, M., Et al., Transplantation 64: 1520-25, 1997; Steinberg, J. B., et al., J. Heart Lung Trans. 13:306-313, 1994).
Endothelial cells may be selected from any of a number of sources and cultured according to methods known in the art; including, for example, coronary artery endothelial cells, human brain microvascular endothelial cells (HBMEC; Hess, D.C., et al., Neurosci. Left. 213(1): 37-40, 1996), or lung endothelial cells. Cells are conveniently cultured in 96-well plates. Cells are stimulated by adding a solution to each well containing 10 μg/ml LPS and 100 pg/ml IL-1β for 6 hours in the presence of test agent (specific concentrations and time may be adjusted depending on the cell type). Treatment buffer is removed and replaced with pre-warmed Fixing Solution® (100 μl/well) for 25 minutes at room temperature. Cells are then washed 3×, then incubated with Blocking Buffer (PBS+2% FBS) for 25 minutes at room temperature. Blocking Buffer containing Monoclonal E-Selectin Antibody (1:750, Sigma Catalog #S-9555) is added to each well. Plates are sealed and stored at 4° overnight. Plates are washed 4× with 160 μL Blocking Buffer per well. Second Antibody-HRP diluted 1:5000 in Blocking Buffer is then added (100 μL/well), and plates are incubated at room temperature (protected from light) for two hours. Plates are then washed 4× with Blocking Buffer before addition of 100 μL of ABTS Substrate solution at room temperature (Zymed, Catalog #00-2024). Wells are allowed to develop for 35 minutes, before measurement at 402 nm in a Fluoroskan® Reader with shake program for 10 seconds. Positive results are recorded as a decrease in ELAM concentration in tested wells, as compared to control wells.

EC50 [1] [µM]	EC50 [2] [µM]	SMILES
≤ 20	≤ 30	CCOC(=O)C1(CSCc2ccccc2)OC(=O)C(O)=C1SCc1ccccc1 (stereo not drawn) [3-Benzylsulfanyl-2-benzylsulfanylmethyl-4-hydroxy-5-oxo-2,5-dihydro-furan-2-carboxylic acid ethyl ester]
≤ 20	≤ 30	CCOC(=O)CSCC1(C(=O)OCC)OC(=O)C(OC(=O)C(C)(C)C)=C1SCC(=O)OCC (stereo not drawn) [4-(2,2-Dimethyl-propionyloxy)-3-ethoxycarbonylmethylsulfanyl-2-ethoxycarbonylmethylsulfanylmethyl-5-oxo-2,5-dihydro-furan-2-carboxylic acid ethyl ester]
≤ 20	≤ 30	CCOC(=O)C1(CSc2nc3ccccc3n2C)OC(=O)C(O)=C1Sc1nc2ccccc2n1C (stereo not drawn) [4-Hydroxy-3-(1-methyl-1H-benzoimidazol-2-ylsulfanyl)-2-(1-methyl-1H-benzoimidazol-2-ylsulfanylmethyl)-5-oxo-2,5-dihydro-furan-2-carboxylic acid ethyl ester]
≤ 20	≤ 30	CCOC(=O)C1(CSc2ccc(C=CC(=O)OC)cc2)OC(=O)C(O)=C1Sc1ccc(C=CC(=O)OC)cc1 (stereo not drawn) [4-Hydroxy-3-[4-(2-methoxycarbonyl-vinyl)-phenylsulfanyl]-2-[4-(2-methoxycarbonyl-vinyl)-phenylsulfanylmethyl]-5-oxo-2,5-dihydro-furan-2-carboxylic acid ethyl ester]

Further lines, the molecule ahead of its results:

SMILES	EC50 [1] [µM]	EC50 [2] [µM]
CCOC(=O)C1(CSC2CCCCC2)OC(=O)C(O)=C1SC1CCCCC1 (stereo not drawn) [3-Cyclohexylsulfanyl-2-cyclohexylsulfanylmethyl-4-hydroxy-5-oxo-2,5-dihydro-furan-2-carboxylic acid ethyl ester]	≤ 20	≤ 30
CCOC(=O)C1(CSc2nc3cc(OC)ccc3s2)OC(=O)C(O)=C1Sc1nc2cc(OC)ccc2s1 (stereo not drawn) [4-Hydroxy-3-(5-methoxy-benzothiazol-2-ylsulfanyl)-2-(5-methoxy-benzothiazol-2-ylsulfanylmethyl)-5-oxo-2,5-dihydro-furan-2-carboxylic acid ethyl ester]	≤ 20	≤ 30
CCOC(=O)C1(CSc2nc3ccc([N+](=O)[O-])cc3s2)OC(=O)C(O)=C1Sc1nc2ccc([N+](=O)[O-])cc2s1 (stereo not drawn) [4-Hydroxy-3-(6-nitro-benzothiazol-2-ylsulfanyl)-2-(6-nitro-benzothiazol-2-ylsulfanylmethyl)-5-oxo-2,5-dihydro-furan-2-carboxylic acid ethyl ester]	≤ 20	≤ 30
CCOC(=O)C1(CSc2nc(-c3ccccc3)cs2)OC(=O)C(O)=C1Sc1nc(-c2ccccc2)cs1 (stereo not drawn) [4-Hydroxy-5-oxo-3-(4-phenyl-thiazol-2-ylsulfanyl)-2-(4-phenyl-thiazol-2-ylsulfanylmethyl)-2,5-dihydro-furan-2-carboxylic acid ethyl ester]	≤ 20	≤ 30
CCOC(=O)C1(CSc2nccc(C(F)(F)F)n2)OC(=O)C(O)=C1Sc1nccc(C(F)(F)F)n1 (stereo not drawn) [4-Hydroxy-5-oxo-3-(4-trifluoromethyl-pyrimidin-2-ylsulfanyl)-2-(4-trifluoromethyl-pyrimidin-2-ylsulfanylmethyl)-2,5-dihydro-furan-2-carboxylic acid ethyl ester]	≤ 20	≤ 30
